The values that follow come from patent publication US10570184B2, “GLP-1/glucagon receptor co-agonists for medical use” (Novo Nordisk A/S, priority 2014, dated 2020).

By IC50 is commonly meant the concentration at which inhibition is half-maximal.

Starred links: 1 amine or outer side, 2 acyl side, 3 side chain; linkers in the order of their positions; H or OH if unused. Non-standard residues stand in square brackets, D forms with d. Residues, ends and D or L forms follow the SMILES beside them. Groups on a side chain read outwards from the residue. *: point of attachment. C18 diacid = O=C(O)CCCCCCCCCCCCCCCCC(=O)*; γGlu = O=C(O)[C@H](CCC(=O)[*:2])N[*:1]; Ac4c = NC1(C(=O)O)CCC1; AEEA = NCCOCCOCC(=O)O

In the assay the target is T1, human glucagon receptor (Homo sapiens, UniProt P47871).
T1 construct: expressed in transfected cells; host or cells: membranes of BHK cells, clone BHK hGCGR A3*25
T1 sequence (P47871 26-477): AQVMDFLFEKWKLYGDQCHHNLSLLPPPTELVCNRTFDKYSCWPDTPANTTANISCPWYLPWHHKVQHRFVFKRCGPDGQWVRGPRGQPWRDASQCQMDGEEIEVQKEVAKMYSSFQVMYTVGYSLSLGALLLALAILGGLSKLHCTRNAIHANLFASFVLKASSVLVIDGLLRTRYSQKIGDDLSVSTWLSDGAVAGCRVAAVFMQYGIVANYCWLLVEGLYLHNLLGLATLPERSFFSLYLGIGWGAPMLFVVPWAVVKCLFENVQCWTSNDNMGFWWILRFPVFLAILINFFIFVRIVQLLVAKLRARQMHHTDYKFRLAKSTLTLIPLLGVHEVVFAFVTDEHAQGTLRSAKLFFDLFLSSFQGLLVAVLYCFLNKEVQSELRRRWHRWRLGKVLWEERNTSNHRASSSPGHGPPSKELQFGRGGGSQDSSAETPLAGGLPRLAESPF
Description: Assay (II)(b) glucagon receptor binding, 125I-glucagon displacement SPA on BHK membranes. Particulars: without presence of serum albumin; read-out: GlucagonR IC50 (nM) [Assay (II)(b)]. As for the experimental part:
The glucagon receptor (glucagonR) binding activity is a measure of affinity of a derivative for the human glucagon receptor. The receptor binding of each compound to the human glucagon receptor was measured in a displacement binding assay. In this type of assay a labelled ligand (in this case 125I-glucagon) is bound to the receptor. Each derivative was added in a series of concentrations to isolated membranes containing the human glucagon receptor and displacement of the labelled ligand is monitored. The receptor binding was reported as the concentration at which half of the labelled ligand is displaced from the receptor, the IC50 value. In order to test the binding of the derivatives to albumin, the assay may be performed in a very low concentration of serum albumin (max. 0.001% final assay concentration) as well as in the presence of a higher concentration of serum albumin (0.2% final assay concentration). An increase of the IC50 value, in the presence of serum albumin indicates an affinity to serum albumin and represents a method to predict a protracted pharmacokinetic profile of the test substance in animal models. […] The protein concentration was determined. […]

As for `CC[C@H](C)[C@H](NC(=O)[C@H](CC(C)C)NC(=O)[C@H](Cc1c[nH]c2ccccc12)NC(=O)[C@H](CCC(N)=O)NC(=O)[C@@H](NC(=O)[C@H](Cc1ccccc1)NC(=O)[C@H](CCC(=O)O)NC(=O)[C@H](CCC(N)=O)NC(=O)[C@H](C)NC(=O)[C@H](CCCNC(=N)N)NC(=O)[C@H](CCCNC(=N)N)NC(=O)[C@H](CO)NC(=O)[C@H](CCC(=O)O)NC(=O)[C@H](CC(C)C)NC(=O)[C@H](Cc1ccc(O)cc1)NC(=O)[C@H](CCCCN)NC(=O)[C@H](CO)NC(=O)[C@H](CC(C)C)NC(=O)[C@H](CC(=O)O)NC(=O)[C@H](CO)NC(=O)[C@@H](NC(=O)[C@H](Cc1ccccc1)NC(=O)[C@@H](NC(=O)CNC(=O)[C@H](CCC(N)=O)NC(=O)C1(NC(=O)[C@@H](N)Cc2c[nH]cn2)CCC1)[C@@H](C)O)[C@@H](C)O)C(C)C)C(=O)N[C@@H](CCCCNC(=O)CC[C@H](NC(=O)COCCOCCNC(=O)COCCOCCNC(=O)CC[C@H](NC(=O)CC[C@H](NC(=O)CCCCCCCCCCCCCCCCC(=O)O)C(=O)O)C(=O)O)C(=O)O)C(=O)N[C@H](C(N)=O)[C@@H](C)O` [Chem. 38, N^ε28-[(4S)-4-carboxy-4-[[2-[2-[2-[[2-[2-[2-[[(4S)-4-carboxy-4-[[(4S)-4-carboxy-4-(17-carboxyheptadecanoylamino)butanoyl]amino]butanoyl]amino]ethoxy]ethoxy]acetyl]amino]ethoxy]ethoxy]acetyl]amino]butanoyl]-[Acb2,Leu10,Glu15,Glu21,Ile27,Lys28]-Glucagon amide] (H-H[Ac4c]QGTFTSDLSKYLESRRAQEFVQWLIK([γGlu-AEEA-AEEA-γGlu-γGlu-C18 diacid])T-NH2; N-terminus assumed), the IC50 was 2.7 nM.

For `CC[C@H](C)[C@H](NC(=O)[C@H](CC(C)C)NC(=O)[C@H](Cc1c[nH]c2ccccc12)NC(=O)[C@H](CCC(N)=O)NC(=O)[C@@H](NC(=O)[C@H](Cc1ccccc1)NC(=O)[C@H](CCC(=O)O)NC(=O)[C@H](CCCNC(=N)N)NC(=O)[C@H](C)NC(=O)[C@H](CCCNC(=N)N)NC(=O)[C@H](CCCNC(=N)N)NC(=O)[C@H](CO)NC(=O)[C@H](CCC(=O)O)NC(=O)[C@H](CC(C)C)NC(=O)[C@H](Cc1ccc(O)cc1)NC(=O)[C@H](CCCCN)NC(=O)[C@H](CO)NC(=O)[C@H](CC(C)C)NC(=O)[C@H](CC(=O)O)NC(=O)[C@H](CO)NC(=O)[C@@H](NC(=O)[C@H](Cc1ccccc1)NC(=O)[C@@H](NC(=O)CNC(=O)[C@H](CCC(N)=O)NC(=O)C1(NC(=O)[C@@H](N)Cc2c[nH]cn2)CCC1)[C@@H](C)O)[C@@H](C)O)C(C)C)C(=O)N[C@@H](CCCCNC(=O)CNC(=O)[C@H](CO)NC(=O)[C@H](CCC(=O)O)NC(=O)CNC(=O)[C@H](CO)NC(=O)CC[C@H](NC(=O)CC[C@H](NC(=O)CCCCCCCCCCCCCCCCC(=O)O)C(=O)O)C(=O)O)C(=O)N[C@H](C(N)=O)[C@@H](C)O` [Chem. 16, N^ε28-[2-[[(2S)-2-[[(2S)-4-carboxy-2-[[2-[[(2S)-2-[[(4S)-4-carboxy-4-[[(4S)-4-carboxy-4-(17-carboxyheptadecanoylamino)butanoyl]amino]butanoyl]amino]-3-hydroxypropanoyl]amino]acetyl]amino]butanoyl]amino]-3-hydroxypropanoyl]amino]acetyl]-[Acb2,Leu10,Glu15,Arg20,Glu21,Ile27,Lys28]-Glucagon amide] (HELM PEPTIDE1{H.[O=C(C1(N[*:1])CCC1)[*:2]].Q.G.T.F.T.S.D.L.S.K.Y.L.E.S.R.R.A.R.E.F.V.Q.W.L.I.K.T.[am]}|PEPTIDE2{[O=C(O)CCCCCCCCCCCCCCCCC(=O)[*:2]].[gGlu].[gGlu].S.G.E.S.G}$PEPTIDE1,PEPTIDE2,28:R3-8:R2$$$V2.0), the IC50 came out at 2.7 nM.
